{
  "source": "patent US10016515B2",
  "about": "“DMA, a bis-benzimidazole, confers radioprotection to the intestine via Akt/NFκB dual pathway activation” (Jawaharlal Nehru University, priority 2016, dated 2018)",
  "experiment": "Tissue bio-distribution and tissue pharmacokinetics of DMA",
  "format": "in vivo, mouse",
  "details": "for concentration at 2 h / concentration at 4 h / concentration at 6 h / concentration at 16 h / concentration at 24 h / concentration at 1 h: Balb/c, mouse",
  "protocol": "Tissue samples were collected from the same mice from which blood samples were collected in both doses of DMA. Lung, liver, kidney, intestine, heart, spleen, brain were dissected and rinsed with phosphate buffer saline (PBS) and dried on blotting paper. 100 mg of tissue sample was homogenized for 20 s in chilled acetronitrile and water and further 700 μl chilled acetronitrile was added. The sample was centrifuged at 14000 rpm for 10 min and clear supernatant was collected for analysis on HPLC-MS/MS system.\nA standard DMA calibration from 1-1000 ng/ml with internal standard (20 ng/ml) was quantified. Sample analysis was performed on positive ionization mode LC-MS/MS with multiple reactions monitoring (MRM, m/z Q1/Q3) of DMA (m/z 235.1/412.0, retention time (RT) 5.3 min) and internal standard (m/z 227.1/396.0, RT 6.5 min) (Agilent 6410 series). A gradient method was employed to analyze the plasma samples using mobile phase A (0.1% formic acid in water) and mobile phase B (methanol). The B % was set as 30 (0 min), 90 (10-14 min), 30 (14-24 min) with flow rate of 0.3 ml/min. An injection volume of 10 μl was used for analysis.\nPeak tissue concentration (Cmax) of DMA and time to reach the Cmax (tmax) were read directly from the raw data by visual examination of mean tissue concentration-time profile. The tissue concentration-time data following oral dose were subjected to one-, two- and three-compartmental models using WinNonlin program (version 6.3; Certara Inc, Missouri, USA) to calculate the pharmacokinetic parameters. The pharmacokinetic models were compared according to maximal correlation between observed and predicted concentration, minimal sum of squared residuals, Akaike Information Criterion (AIC) and Schwarz Bayesian Criterion (SBC). However, the tissue concentration-time data following intravenous administration were subjected to non-compartmental approach.",
  "key": {"[1]": {"details": "intestine, iv, i.v. 50 mg/kg, read-out: Tissue DMA concentration, Intestine"}, "[2]": {"details": "intestine, Oral 100 mg/kg, read-out: Tissue DMA concentration, Intestine"}, "[3]": {"details": "kidney, iv, i.v. 50 mg/kg, read-out: Tissue DMA concentration, Kidney"}},
  "note": "Read-outs that look alike come from different tables or passages of the source.",
  "data": [
    {"smiles": "COc1ccc(-c2nc3cc(-c4nc5cc(N6CCN(C)CC6)ccc5[nH]4)ccc3[nH]2)cc1OC", "note": "[DMA, 5-(4-methylpiperazin-1-yl)-2-[2′-(3,4-dimethoxyphenyl)-5′-benzimidazolyl]benzimidazole]", "values": [
      {"measurement": "Concentration achieved in intestine", "setting": "50 mg/kg i.v.", "result": 1260, "unit": "µg/g"},
      {"measurement": "Small intestine concentration, i.v. as compared to oral route", "setting": "50 mg/kg i.v. vs 100 mg/kg oral", "result": 11.88, "unit": "fold"},
      {"measurement": "AUC, Kidney", "setting": "50 mg/kg intravenous", "result": 945577.2, "unit": "ng·h/g"},
      {"measurement": "AUC, Liver", "setting": "50 mg/kg intravenous", "result": 889040, "unit": "ng·h/g"},
      {"measurement": "AUC, Lung", "setting": "50 mg/kg intravenous", "result": 2674622.2, "unit": "ng·h/g"},
      {"measurement": "AUC, Small Intestine", "setting": "50 mg/kg intravenous", "result": 220072.6, "unit": "ng·h/g"},
      {"measurement": "AUC, Spleen", "setting": "50 mg/kg intravenous", "result": 145191, "unit": "ng·h/g"},
      {"measurement": "C1 hr, Kidney", "setting": "50 mg/kg intravenous", "result": 14900, "unit": "ng/g"},
      {"measurement": "C1 hr, Liver", "setting": "50 mg/kg intravenous", "result": 41600, "unit": "ng/g"},
      {"measurement": "C1 hr, Lung", "setting": "50 mg/kg intravenous", "result": 109000, "unit": "ng/g"},
      {"measurement": "C1 hr, Small Intestine", "setting": "50 mg/kg intravenous", "result": 1260000, "unit": "ng/g"},
      {"measurement": "Clearance, Kidney", "setting": "50 mg/kg intravenous", "result": 17.9, "unit": "g/h/kg"},
      {"measurement": "Clearance, Liver", "setting": "50 mg/kg intravenous", "result": 39.5, "unit": "g/h/kg"},
      {"measurement": "Clearance, Small Intestine", "setting": "50 mg/kg intravenous", "result": 15.0, "unit": "g/h/kg"},
      {"measurement": "Clearance, Spleen", "setting": "50 mg/kg intravenous", "result": 89.3, "unit": "g/h/kg"},
      {"measurement": "Vd, Kidney", "setting": "50 mg/kg intravenous", "result": 1944.8, "unit": "g/kg"},
      {"measurement": "Vd, Liver", "setting": "50 mg/kg intravenous", "result": 668.7, "unit": "g/kg"},
      {"measurement": "Vd, Lung", "setting": "50 mg/kg intravenous", "result": 552.1, "unit": "g/kg"},
      {"measurement": "Vd, Small Intestine", "setting": "50 mg/kg intravenous", "result": 40360.3, "unit": "g/kg"},
      {"measurement": "Vd, Spleen", "setting": "50 mg/kg intravenous", "result": 3857.9, "unit": "g/kg"},
      {"measurement": "Vss, Kidney", "setting": "50 mg/kg intravenous", "result": 1623.5, "unit": "g/kg"},
      {"measurement": "Vss, Liver", "setting": "50 mg/kg intravenous", "result": 496.11, "unit": "g/kg"},
      {"measurement": "Vss, Lung", "setting": "50 mg/kg intravenous", "result": 10.72, "unit": "g/kg"},
      {"measurement": "Vss, Small Intestine", "setting": "50 mg/kg intravenous", "result": 4.9, "unit": "g/kg"},
      {"measurement": "Vss, Spleen", "setting": "50 mg/kg intravenous", "result": 4114.6, "unit": "g/kg"},
      {"measurement": "AUC, Kidney", "setting": "100 mg/kg oral dose", "result": 10874.29, "unit": "ng·h/g"},
      {"measurement": "AUC, Liver", "setting": "100 mg/kg oral dose", "result": 20717.3, "unit": "ng·h/g"},
      {"measurement": "AUC, Small Intestine", "setting": "100 mg/kg oral dose", "result": 361353.4, "unit": "ng·h/g"},
      {"measurement": "AUC, Spleen", "setting": "100 mg/kg oral dose", "result": 8353.819, "unit": "ng·h/g"},
      {"measurement": "Cl/F, Kidney", "setting": "100 mg/kg oral dose", "result": 9190, "unit": "g/h/kg"},
      {"measurement": "Cl/F, Liver", "setting": "100 mg/kg oral dose", "result": 4000, "unit": "g/h/kg"},
      {"measurement": "Cl/F, Small Intestine", "setting": "100 mg/kg oral dose", "result": 277, "unit": "g/h/kg"},
      {"measurement": "Cl/F, Spleen", "setting": "100 mg/kg oral dose", "result": 11000, "unit": "g/h/kg"},
      {"measurement": "Cmax, Kidney", "setting": "100 mg/kg oral dose", "result": 1530, "unit": "ng/g"},
      {"measurement": "Cmax, Liver", "setting": "100 mg/kg oral dose", "result": 2230, "unit": "ng/g"},
      {"measurement": "Maximum concentration in small intestine", "setting": "100 mg/kg oral, at 2 h", "result": 106, "unit": "µg/g"},
      {"measurement": "Maximum concentration in spleen", "setting": "100 mg/kg oral, at 2 h", "result": 1.31, "unit": "µg/g"},
      {"measurement": "Maximum concentration in kidney", "setting": "100 mg/kg oral, at 4 h", "result": 1.53, "unit": "µg/g"},
      {"measurement": "Maximum concentration in liver", "setting": "100 mg/kg oral, at 4 h", "result": 2.23, "unit": "µg/g"},
      {"measurement": "concentration at 2 h", "setting": "[1]", "result": 70400, "unit": "ng/g"},
      {"measurement": "concentration at 4 h", "setting": "[1]", "result": 59200, "unit": "ng/g"},
      {"measurement": "concentration at 6 h", "setting": "[1]", "result": 29700, "unit": "ng/g"},
      {"measurement": "concentration at 16 h", "setting": "[1]", "result": 2530, "unit": "ng/g"},
      {"measurement": "concentration at 24 h", "setting": "[1]", "result": 1710, "unit": "ng/g"},
      {"measurement": "concentration at 1 h", "setting": "intestine, Oral 100 mg/kg, 1 h, read-out: Tissue DMA concentration, Intestine", "result": 675, "unit": "ng/g"},
      {"measurement": "concentration at 2 h", "setting": "[2]", "result": 106000, "unit": "ng/g"},
      {"measurement": "concentration at 4 h", "setting": "[2]", "result": 30200, "unit": "ng/g"},
      {"measurement": "concentration at 6 h", "setting": "[2]", "result": 28700, "unit": "ng/g"},
      {"measurement": "concentration at 16 h", "setting": "[2]", "result": 612, "unit": "ng/g"},
      {"measurement": "concentration at 24 h", "setting": "[2]", "result": 410, "unit": "ng/g"},
      {"measurement": "concentration at 1 h", "setting": "kidney, intravenous, 50 mg/kg i.v., read-out: Concentration achieved in kidney", "result": 14900, "unit": "ng/g"},
      {"measurement": "concentration at 1 h", "setting": "kidney, iv, i.v. 50 mg/kg, 1 h, read-out: Tissue DMA concentration, Kidney", "result": 14900, "unit": "ng/g"},
      {"measurement": "concentration at 2 h", "setting": "[3]", "result": 8370, "unit": "ng/g"},
      {"measurement": "concentration at 4 h", "setting": "[3]", "result": 9080, "unit": "ng/g"},
      {"measurement": "concentration at 6 h", "setting": "[3]", "result": 707, "unit": "ng/g"},
      {"measurement": "concentration at 16 h", "setting": "[3]", "result": 263, "unit": "ng/g"}
    ]}
  ]
}
